Test results from patent US10538567B2, “Compounds as peptidic trigonal GLP1/glucagon/GIP receptor agonists” (priority 2016, dated 2020).
Numbered stars: 1 amine (or outer) side, 2 acyl side, 3 side chain; on linkers, the order of the positions; unused ones are H or OH. Square brackets hold non-standard residues; d marks the D form. Side chains are listed from the residue outwards. Peptide text beside a SMILES is read from it. * marks the point of attachment. Adipoyl(4R-palmitoylamino) = CCCCCCCCCCCCCCCC(=O)N[C@H](CCC(=O)*)CC(=O)O; γGlu = O=C(O)[C@H](CCC(=O)[*:2])N[*:1]; AEEA = NCCOCCOCC(=O)O; Aib = CC(C)(N)C(=O)O

Experiments:
[1] = biological target: T1, human GIP receptor (Homo sapiens, UniProt P48546); experiment: cAMP response (HTRF) of HEK-293 cells stably expressing human GIP receptor; type: cell-based; details: Table 8; read-out: EC50 hGIP R
T1 construct: expressed in transfected cells; host or cells: HEK-293
T1 sequence (P48546 22-466): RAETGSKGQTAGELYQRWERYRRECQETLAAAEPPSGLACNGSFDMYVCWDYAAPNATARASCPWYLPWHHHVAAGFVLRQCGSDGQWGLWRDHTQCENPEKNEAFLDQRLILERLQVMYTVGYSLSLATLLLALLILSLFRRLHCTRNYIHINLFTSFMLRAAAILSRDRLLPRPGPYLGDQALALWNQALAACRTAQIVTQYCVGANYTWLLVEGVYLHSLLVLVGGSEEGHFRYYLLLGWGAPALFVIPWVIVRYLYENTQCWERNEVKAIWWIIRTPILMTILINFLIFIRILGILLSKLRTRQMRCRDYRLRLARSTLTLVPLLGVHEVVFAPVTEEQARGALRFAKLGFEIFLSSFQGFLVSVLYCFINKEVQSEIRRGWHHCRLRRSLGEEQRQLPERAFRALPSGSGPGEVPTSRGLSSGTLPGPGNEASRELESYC
Method: Agonism of compounds for the receptors was determined by functional assays measuring cAMP response of HEK-293 cell lines stably expressing human GLP-1, GIP or glucagon receptor.
(§1) cAMP content of cells was determined using a kit from Cisbio Corp. (cat. no. 62AM4PEJ) based on HTRF (Homogenous Time Resolved Fluorescence). For preparation, cells were split into T175 culture flasks and grown overnight to near confluency in medium (DMEM/10% FBS). Medium was then removed and cells washed with PBS lacking calcium and magnesium, followed by proteinase treatment with accutase (Sigma-Aldrich cat. no. A6964). Detached cells were washed and resuspended in assay buffer (1×HBSS; 20 mM HEPES, 0.1% BSA, 2 mM IBMX) and cellular density determined. They were then diluted to 400000 cells/ml and 25 μl-aliquots dispensed into the wells of 96-well plates. For measurement, 25 μl of test compound in assay buffer was added to the wells, followed by incubation for 30 minutes at room temperature. After addition of HTRF reagents diluted in lysis buffer (kit components), the plates were incubated for 1 hr, followed by measurement of the fluorescence ratio at 665/616 nm. In vitro potency of agonists was quantified by determining the concentrations that caused 50% activation of maximal response (EC50).
(§2) Potencies of peptidic compounds at the GLP-1, glucagon and GIP receptors were determined by exposing cells expressing human glucagon receptor (hGlucagon R), human GIP receptor (hGIP-R) or human GLP-1 receptor (hGLP-1 R) to the listed compounds at increasing concentrations and measuring the formed cAMP as described in Methods.

[2] = Thioflavin T (ThT) assay for physical stability (fibrillation); type: physicochemical; details: 3 mg/ml, 100 mM acetate pH 4.5 with m-cresol, 37° C. shaking
Source text: Low physical stability of a peptide solution may lead to amyloid fibril formation, which is observed as well-ordered, thread-like macromolecular structures in the sample, which eventually may lead to gel formation. Thioflavin T (ThT) is widely used to visualize and quantify the presence of misfolded protein aggregates. [Biancalana et al. (2010) Biochimica et Biophysica Acta. 1804 (7): 1405-1412]. […] Enzymol. 309, 274-284]. The time course for fibril formation often follows the characteristic shape of a sigmoidal curve and can be separated into three regions: a lag phase, a fast growth phase, and a plateau phase.
The typical fibril formation process starts with the lag phase in which the amount of partially folded peptide turned into fibrils is not significant enough to be detected. The lag-time corresponds to the time the critical mass of the nucleus is built. Afterwards, a drastic elongation phase follows and fibril concentration increases rapidly.
Investigations were carried out to determine fibrillation tendencies under stress conditions by shaking at 37° C. within Fluoroskan Ascent FL.
For the tests in Fluoroskan Ascent FL, 200 μL sample were placed into a 96 well mictrotiter plate PS, flat bottom, Greiner Fluotrac No. 655076. Plates were sealed with Scotch Tape (Quiagen). Samples were stressed by continuous cycles of 10 s shaking at 960 rpm and 50 s rest period at 37° C. The kinetic was monitored by measuring fluorescence intensity every 20 minutes.
Peptides were diluted in a buffer system to a final concentration of 3 mg/ml. 20 μL of a 10.1 mM ThT solution in H2O were added to 2 mL of peptide solution to receive a final concentration of 100 μM ThT. For each sample eight replicates were tested.
Tht buffer system A) 100 mM Acetate pH 4.5 including m-cresol (100 mM Natriumacetat trihydrat, pH adjustment using 2N CH3COOH, 2.7 mg/mL m-cresol) Tht buffer system B) 100 mM citrate buffer pH 6.0
Lag time in hours in Thioflavin T (ThT) assay of peptide samples was determined in ThT buffer system A as described in Methods.

[3] = Chemical stability assessment, UPLC-UV purity loss in buffer system A; type: physicochemical; details: 1 mg/ml, 25 mM acetate buffer pH 4.5 with m-cresol
Method: Prior to the chemical stability measurement of a peptide batch, its purity was determined through UPLC/MS. For stability testing the target concentration was 1 mg pure compound/ml. Therefore solutions from solid samples were prepared in a buffer system with a concentration of 1 mg/mL compound based on the previously determined % purity:
Chemical stability buffer system A) 25 mM acetate buffer pH 4.5, 3 mg/mL L-Methionine, 2.7 mg/mL m-cresol, 18 mg/mL Glycerol 85% Chemical stability buffer system B) 25 mM phosphate buffer pH 6.0, 3 mg/mL L-Methionine, 2.7 mg/mL m-cresol, 18 mg/mL Glycerol 85%
Peptide solutions were filtered through […] pore size and filled into aliquots under aseptic conditions. At starting point, UPLC-UV was performed by injection of 2 μl of the undiluted sample.
For chemical stability testing, aliquots were stored for 28 days at 5 and 40° C. After this time course the samples were centrifuged for 15 min at 2500 RCF. Then 2 μl of the undiluted supernatant were analysed with UPLC-UV.
The chemical stability was rated through the relative loss of purity calculated by the equation: [(purity at starting point)−(purity after 28 days at X° C.)]/(purity at starting point)]*100%
The purity is calculated as
[(peak area peptide)/(total peak area)]*100%
Peptide samples were prepared in Chemical stability buffer system A and the stability was assessed as described in Methods.

[4] = biological target: T2, human GLP-1 receptor (Homo sapiens, UniProt P43220); experiment: cAMP response (HTRF) of HEK-293 cells stably expressing human GLP-1 receptor; type: cell-based; details: Table 8; read-out: EC50 hGLP-1R
T2 construct: expressed in transfected cells; host or cells: HEK-293
Method: as §1, with “temperature.” for “temperature. After addition of HTRF reagents diluted in lysis buffer (kit components), the plates were incubated for 1 hr, followed by measurement of the fluorescence ratio at 665/616 nm. In vitro potency of agonists was quantified by determining the concentrations that caused 50% activation of maximal response (EC50).”
as §2

T2 sequence (P43220 24-463): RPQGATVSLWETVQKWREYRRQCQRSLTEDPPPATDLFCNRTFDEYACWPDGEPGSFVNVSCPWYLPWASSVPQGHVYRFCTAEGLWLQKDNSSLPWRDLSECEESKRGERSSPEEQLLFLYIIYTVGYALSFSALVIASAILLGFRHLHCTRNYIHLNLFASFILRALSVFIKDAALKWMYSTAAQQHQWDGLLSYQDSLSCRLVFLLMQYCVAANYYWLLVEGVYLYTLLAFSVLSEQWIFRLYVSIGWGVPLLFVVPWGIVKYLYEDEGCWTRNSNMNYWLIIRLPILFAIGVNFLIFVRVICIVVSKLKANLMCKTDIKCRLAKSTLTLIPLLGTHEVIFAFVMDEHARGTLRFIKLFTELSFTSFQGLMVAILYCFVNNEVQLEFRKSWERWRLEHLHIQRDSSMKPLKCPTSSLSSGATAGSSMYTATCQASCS

Structure (SMILES): CCCCCCCCCCCCCCCC(=O)N[C@@H](CCC(=O)NCCCC[C@H](NC(=O)[C@H](CC(C)C)NC(=O)[C@H](CCCCN)NC(=O)[C@H](CO)NC(=O)[C@H](CC(C)C)NC(=O)[C@H](CC(=O)O)NC(=O)[C@H](CO)NC(=O)[C@@H](NC(=O)[C@H](Cc1ccccc1)NC(=O)[C@@H](NC(=O)CNC(=O)[C@H](Cc1c[nH]cn1)NC(=O)C(C)(C)NC(=O)[C@@H](N)Cc1c[nH]cn1)[C@@H](C)O)[C@@H](C)O)C(=O)N[C@@H](CCC(=O)O)C(=O)N[C@@H](CCC(=O)O)C(=O)N[C@@H](CCC(N)=O)C(=O)N[C@@H](CCCNC(=N)N)C(=O)N[C@@H](CCC(N)=O)C(=O)N[C@@H](CCCCN)C(=O)N[C@@H](CCC(=O)O)C(=O)N[C@@H](Cc1ccccc1)C(=O)N[C@H](C(=O)N[C@@H](CCC(=O)O)C(=O)N[C@@H](Cc1c[nH]c2ccccc12)C(=O)N[C@@H](CC(C)C)C(=O)N[C@@H](CCCCN)C(=O)N[C@@H](C)C(=O)NCC(=O)NCC(=O)N1CCC[C@H]1C(=O)N1CCC[C@H]1C(=O)N[C@@H](CO)C(=O)NC(C)(C)C(=O)N[C@@H](CCCCN)C(=O)N1CCC[C@H]1C(=O)N1CCC[C@H]1C(=O)N1CCC[C@H]1C(=O)N[C@@H](CCCCN)C(N)=O)[C@@H](C)CC)C(=O)O [SEQ ID NO: 20, H-Aib-H-G-T-F-T-S-D-L-S-K-L-K[gGlu-Palm]-E-E-Q-R-Q-K-E-F-I-E-W-L-K-A-G-G-P-P-S-Aib-K-P-P-P-K-NH2]
- EC50 [1]: 1.9 pM
- Lag time before increase [2]: >45 h

Structure (SMILES): CCCCCCCCCCCCCCCC(=O)N[C@H](CCC(=O)NCCOCCOCC(=O)N[C@@H](CCC(=O)NCCCC[C@H](NC(=O)[C@H](CC(C)C)NC(=O)[C@H](CCCCN)NC(=O)[C@H](CO)NC(=O)[C@H](CC(C)C)NC(=O)[C@H](CC(=O)O)NC(=O)[C@H](CO)NC(=O)[C@@H](NC(=O)[C@H](Cc1ccccc1)NC(=O)[C@@H](NC(=O)CNC(=O)[C@H](Cc1c[nH]cn1)NC(=O)C(C)(C)NC(=O)[C@@H](N)Cc1c[nH]cn1)[C@@H](C)O)[C@@H](C)O)C(=O)N[C@@H](CCC(=O)O)C(=O)N[C@@H](CCC(=O)O)C(=O)N[C@@H](CCC(N)=O)C(=O)N[C@@H](CCCNC(=N)N)C(=O)N[C@@H](CCC(N)=O)C(=O)N[C@@H](CCCCN)C(=O)N[C@@H](CCC(=O)O)C(=O)N[C@@H](Cc1ccccc1)C(=O)N[C@H](C(=O)N[C@@H](CCC(=O)O)C(=O)N[C@@H](Cc1c[nH]c2ccccc12)C(=O)N[C@@H](CC(C)C)C(=O)N[C@@H](CCCCN)C(=O)N[C@@H](C)C(=O)NCC(=O)NCC(=O)N[C@@H](Cc1c[nH]cn1)C(=O)N1CCC[C@H]1C(=O)N[C@@H](CO)C(=O)NC(C)(C)C(=O)N[C@@H](CCCCN)C(=O)N1CCC[C@H]1C(=O)N1CCC[C@H]1C(=O)N1CCC[C@H]1C(=O)N[C@@H](CCCCN)C(N)=O)[C@@H](C)CC)C(=O)O)CC(=O)O [SEQ ID NO: 22, H-Aib-H-G-T-F-T-S-D-L-S-K-L-K[gGlu-AEEA-gAAA-Palm]-E-E-Q-R-Q-K-E-F-I-E-W-L-K-A-G-G-H-P-S-Aib-K-P-P-P-K-NH2] (H-H[Aib]HGTFTSDLSKLK([γGlu-AEEA-Adipoyl(4R-palmitoylamino)])EEQRQKEFIEWLKAGGHPS[Aib]KPPPK-NH2)
- EC50 [1]: 1.1 pM
- Chemical stability [relative purity loss 28 days 40° C.] (%) at pH 4.5 [3]: 9.5%
- Lag time before increase [2]: >45 h

Structure (SMILES): CCCCCCCCCCCCCCCC(=O)N[C@H](CCC(=O)NCCOCCOCC(=O)N[C@@H](CCC(=O)NCCCC[C@H](NC(=O)[C@H](CC(C)C)NC(=O)[C@H](CCCCN)NC(=O)[C@H](CO)NC(=O)[C@H](CC(C)C)NC(=O)[C@H](CC(=O)O)NC(=O)[C@H](CO)NC(=O)[C@@H](NC(=O)[C@H](Cc1ccccc1)NC(=O)[C@@H](NC(=O)CNC(=O)[C@H](Cc1c[nH]cn1)NC(=O)C(C)(C)NC(=O)[C@@H](N)Cc1c[nH]cn1)[C@@H](C)O)[C@@H](C)O)C(=O)N[C@@H](CCC(=O)O)C(=O)N[C@@H](CCC(=O)O)C(=O)N[C@@H](CCC(N)=O)C(=O)N[C@@H](CCCNC(=N)N)C(=O)N[C@@H](CCC(N)=O)C(=O)N[C@@H](CCCCN)C(=O)N[C@@H](CCC(=O)O)C(=O)N[C@@H](Cc1ccccc1)C(=O)N[C@H](C(=O)N[C@@H](CCC(=O)O)C(=O)N[C@@H](Cc1c[nH]c2ccccc12)C(=O)N[C@@H](CC(C)C)C(=O)N[C@@H](CCCCN)C(=O)N[C@@H](C)C(=O)N[C@H](C)C(=O)NCC(=O)N[C@@H](Cc1c[nH]cn1)C(=O)N1CCC[C@H]1C(=O)N[C@@H](CO)C(=O)NC(C)(C)C(=O)N[C@@H](CCCCN)C(=O)N1CCC[C@H]1C(=O)N1CCC[C@H]1C(=O)N1CCC[C@H]1C(=O)N[C@@H](CCCCN)C(N)=O)[C@@H](C)CC)C(=O)O)CC(=O)O [SEQ ID NO: 23, H-Aib-H-G-T-F-T-S-D-L-S-K-L-K[gGlu-AEEA-gAAA-Palm]-E-E-Q-R-Q-K-E-F-I-E-W-L-K-A-dAla-G-H-P-S-Aib-K-P-P-P-K-NH2] (H-H[Aib]HGTFTSDLSKLK([γGlu-AEEA-Adipoyl(4R-palmitoylamino)])EEQRQKEFIEWLKA[dA]GHPS[Aib]KPPPK-NH2)
- EC50 [4]: 1.4 pM
- EC50 [1]: 1.5 pM
- Chemical stability [relative purity loss 28 days 40° C.] (%) at pH 4.5 [3]: 8.6%
- Lag time before increase [2]: >45 h
